Measured values taken from ChEMBL document CHEMBL1122748, “Synthesis and evaluation of substituted 2-phenylcyclobutylamines as analogues of hallucinogenic phenethylamines: lack of LSD-like biological activity” (1984).

What was measured:
Type in all cases: functional
Rattus norvegicus [1] = assay: Compound was evaluated for mean % LSD correct responses at a dos e of 15 mg/kg in rats using drug discrimination assay
Rattus norvegicus [2] = assay: Compound was evaluated for mean % LSD correct responses at a dos e of 10 mg/kg in rats using drug discrimination assay
Rattus norvegicus [3] = assay: Compound was evaluated for mean % LSD correct responses at a dos e of 0.75 mg/kg in rats using drug discrimination assay
Rattus norvegicus [4] = assay: Effective dose to cause hallucinogenic activity in rats using drug discrimination assay by intraperitoneal administration; settings: ip

| SMILES | ED50 (Rattus norvegicus [4]) [mg/kg] | further results |
| --- | --- | --- |
| COc1cc(OC)c(C2CC[C@H]2N)cc1OC (stereo partly drawn) |  | LSD (Rattus norvegicus [1]): 28% |
| COc1cc(OC)c(C2CC[C@@H]2N)cc1OC (stereo partly drawn) |  | LSD (Rattus norvegicus [2]): 44% |
| COc1cc(C2CC2N)c(OC)cc1C (stereo not drawn) | 0.163 | LSD (Rattus norvegicus [3]): 93% |
| CCN(CC)C(=O)[C@@H]1C=C2c3cccc4[nH]cc(c34)C[C@H]2N(C)C1 [LYSERGIDE] | 0.0077 |  |
| CCN(CC)C(=O)[C@@H]1C=C2c3cccc4[nH]cc(c34)C[C@H]2N(C)C1.O=C(O)C(O)C(O)C(=O)O | 0.08 |  |
| COc1cc(C2CC2N)c(OC)cc1C.Cl (stereo not drawn) | 20 |  |
| COc1cc(C2CC[C@@H]2N)c(OC)cc1C (stereo partly drawn) |  | LSD (Rattus norvegicus [2]): 53% |
